Assay results: patent US20240285634A1, “COMPOUND AND METHOD FOR TREATING CHEMOTHERAPY-ASSOCIATED GASTROINTESTINAL SIDE EFFECTS” (ONQUALITY PHARMACEUTICALS CHINA LTD., priority 2021, published 2024)

Tested on: Chemotherapeutic agent-caused constipation models of Balb/c mice
Experiment: Relieving effect on constipation caused by a chemotherapeutic agent (Examples 202-364)
Type: in vivo
Description: Construction of mouse animal models: Chemotherapeutic agent-caused constipation models of Balb/c mice were constructed according to the administration mode and frequency of the chemotherapeutic agent as shown in Table 4. […] Thus, chemotherapeutic agent-caused constipation models of mice are very good models to mimic constipation caused by the chemotherapeutic agent.
Balb/c mice were fed for 1 week, and then divided into groups. The experiment was divided into a control group, a chemotherapeutic agent group, and a group of the compound as shown in Formula I, each of which comprised 10 mice, to perform the administration experiment, for which the administration dosage, mode, time and frequency were shown in Table 4. The control group: being injected or intragastrically administered with the same solvent as that used in the group of the compound as shown in Formula I (the administration mode and time were shown in Table 4), and then being injected or intragastrically administered with the same solvent as that used in the chemotherapeutic agent group (the administration mode was shown in Table 4); the chemotherapeutic agent group: being injected or intragastrically administered with the same solvent as that used in the group of the compound as shown in Formula I (the administration mode and time was shown in Table 4), and then being injected or intragastrically administered with the chemotherapeutic agent (the type, administration mode and dosage were shown in Table 4); the group of the compound as shown in Formula I: being injected or intragastrically administered with the compound as shown in Formula I (the administration mode and time was shown in Table 4), and then being administered with the chemotherapeutic agent (the administration mode and dosage were shown in Table 4).
The feces reduction rate was calculated with reference to the method of Ji Eun Kim (Lab Anim Res. 2016 December; 32(4): 231-240.). Feces reduction rate (%)=(the control group−the chemotherapeutic agent group or the group of the compound as shown in Formula I)/the control group*100%
It is regarded as effective remission when the feces reduction rate of mice in the group of the compound as shown in Formula I is reduced compared with that in the chemotherapeutic agent group.
The feces amount of mice within 3 hours was observed and recorded every day. At the end of the experiment, the number of mice in the group of the compound as shown in Formula I whose feces reduction rate was lower than that of mice in the chemotherapeutic agent group was recorded. Table 4 lists various animal experiment combinations of chemotherapeutic agents and the compound as shown in Formula I, as well as the corresponding experimental results.

SMILES: CN1CCN(c2ccc(Nc3ncc4cc5n(c4n3)C3(CCCCC3)CNC5=O)nc2)CC1 [Compound I, Trilaciclib]
- Relative remission rate (%) (Example 202, Fluorouracil (5-Fu) intraperitoneal injection 175 mg/kg single, compound intravenous injection 100 mg/kg, frequency 8, 0.5 h before chemotherapeutic agent, cycle 10 days): 40%
- Relative remission rate (%) (Example 203, Fluorouracil (5-Fu) intraperitoneal injection 175 mg/kg single, compound intravenous injection 100 mg/kg, frequency 8, 1 h before chemotherapeutic agent, cycle 10 days): 30%
- Relative remission rate (%) (Example 204, Fluorouracil (5-Fu) intraperitoneal injection 175 mg/kg single, compound intravenous injection 100 mg/kg, frequency 8, 2 h before chemotherapeutic agent, cycle 10 days): 40%
- Relative remission rate (%) (Example 205, Fluorouracil (5-Fu) intraperitoneal injection 175 mg/kg single, compound intravenous injection 100 mg/kg, frequency 8, 3 h before chemotherapeutic agent, cycle 10 days): 40%
- Relative remission rate (%) (Example 206, Fluorouracil (5-Fu) intraperitoneal injection 175 mg/kg single, compound intravenous injection 100 mg/kg, frequency 8, 4 h before chemotherapeutic agent, cycle 10 days): 30%
- Relative remission rate (%) (Example 207, Fluorouracil (5-Fu) intraperitoneal injection 175 mg/kg single, compound intravenous injection 100 mg/kg, frequency 8, 5 h before chemotherapeutic agent, cycle 10 days): 20%
- Relative remission rate (%) (Example 208, Fluorouracil (5-Fu) intraperitoneal injection 175 mg/kg single, compound intravenous injection 100 mg/kg, frequency 8, 6 h before chemotherapeutic agent, cycle 10 days): 50%
- Relative remission rate (%) (Example 209, Fluorouracil (5-Fu) intraperitoneal injection 175 mg/kg single, compound intravenous injection 100 mg/kg, frequency 8, 7 h before chemotherapeutic agent, cycle 10 days): 50%
- Relative remission rate (%) (Example 210, Fluorouracil (5-Fu) intraperitoneal injection 175 mg/kg single, compound intravenous injection 100 mg/kg, frequency 8, 8 h before chemotherapeutic agent, cycle 10 days): 40%
- Relative remission rate (%) (Example 211, Fluorouracil (5-Fu) intraperitoneal injection 175 mg/kg single, compound intravenous injection 100 mg/kg, frequency 8, 9 h before chemotherapeutic agent, cycle 10 days): 40%
- Relative remission rate (%) (Example 212, Fluorouracil (5-Fu) intraperitoneal injection 175 mg/kg single, compound intravenous injection 100 mg/kg, frequency 8, 10 h before chemotherapeutic agent, cycle 10 days): 30%
- Relative remission rate (%) (Example 213, Fluorouracil (5-Fu) intraperitoneal injection 175 mg/kg single, compound intravenous injection 100 mg/kg, frequency 8, 11 h before chemotherapeutic agent, cycle 10 days): 50%
- Relative remission rate (%) (Example 214, Fluorouracil (5-Fu) intraperitoneal injection 175 mg/kg single, compound intravenous injection 12.5 mg/kg, frequency 8, 12 h before chemotherapeutic agent, cycle 10 days): 20%
- Relative remission rate (%) (Example 215, Fluorouracil (5-Fu) intraperitoneal injection 175 mg/kg single, compound intravenous injection 25 mg/kg, frequency 8, 12 h before chemotherapeutic agent, cycle 10 days): 30%
- Relative remission rate (%) (Example 216, Fluorouracil (5-Fu) intraperitoneal injection 175 mg/kg single, compound intravenous injection 50 mg/kg, frequency 8, 12 h before chemotherapeutic agent, cycle 10 days): 30%
- Relative remission rate (%) (Example 217, Fluorouracil (5-Fu) intraperitoneal injection 175 mg/kg single, compound intravenous injection 100 mg/kg, frequency 8, 12 h before chemotherapeutic agent, cycle 10 days): 40%
- Relative remission rate (%) (Example 218, Fluorouracil (5-Fu) intraperitoneal injection 175 mg/kg single, compound intravenous injection 150 mg/kg, frequency 8, 12 h before chemotherapeutic agent, cycle 10 days): 60%
- Relative remission rate (%) (Example 219, Fluorouracil (5-Fu) intraperitoneal injection 175 mg/kg single, compound intravenous injection 240 mg/kg, frequency 8, 12 h before chemotherapeutic agent, cycle 10 days): 60%
- Relative remission rate (%) (Example 220, Fluorouracil (5-Fu) intraperitoneal injection 175 mg/kg single, compound intravenous injection 100 mg/kg, frequency 8, 13 h before chemotherapeutic agent, cycle 10 days): 40%
- Relative remission rate (%) (Example 221, Fluorouracil (5-Fu) intraperitoneal injection 175 mg/kg single, compound intravenous injection 100 mg/kg, frequency 8, 14 h before chemotherapeutic agent, cycle 10 days): 40%
- Relative remission rate (%) (Example 222, Fluorouracil (5-Fu) intraperitoneal injection 175 mg/kg single, compound intravenous injection 100 mg/kg, frequency 8, 16 h before chemotherapeutic agent, cycle 10 days): 50%
- Relative remission rate (%) (Example 223, Fluorouracil (5-Fu) intraperitoneal injection 175 mg/kg single, compound intravenous injection 100 mg/kg, frequency 8, 18 h before chemotherapeutic agent, cycle 10 days): 60%
- Relative remission rate (%) (Example 224, Fluorouracil (5-Fu) intraperitoneal injection 175 mg/kg single, compound intravenous injection 100 mg/kg, frequency 8, 20 h before chemotherapeutic agent, cycle 10 days): 60%
- Relative remission rate (%) (Example 225, Fluorouracil (5-Fu) intraperitoneal injection 175 mg/kg single, compound intravenous injection 100 mg/kg, frequency 8, 22 h before chemotherapeutic agent, cycle 10 days): 30%
- Relative remission rate (%) (Example 226, Fluorouracil (5-Fu) intraperitoneal injection 175 mg/kg single, compound intravenous injection 100 mg/kg, frequency 8, 24 h before chemotherapeutic agent, cycle 10 days): 30%
- Relative remission rate (%) (Example 227, Fluorouracil (5-Fu) intraperitoneal injection 175 mg/kg single, compound intravenous injection 100 mg/kg, frequency 8, 48 h before chemotherapeutic agent, cycle 10 days): 0%
- Relative remission rate (%) (Example 228, Fluorouracil (5-Fu) intravenous injection 250 mg/kg single, compound intraperitoneal injection 100 mg/kg single, 0.5 h before chemotherapeutic agent, cycle 10 days): 30%
- Relative remission rate (%) (Example 229, Fluorouracil (5-Fu) intravenous injection 250 mg/kg single, compound intraperitoneal injection 100 mg/kg single, 1 h before chemotherapeutic agent, cycle 10 days): 40%
- Relative remission rate (%) (Example 230, Fluorouracil (5-Fu) intravenous injection 250 mg/kg single, compound intraperitoneal injection 100 mg/kg single, 2 h before chemotherapeutic agent, cycle 10 days): 40%
- Relative remission rate (%) (Example 231, Fluorouracil (5-Fu) intravenous injection 250 mg/kg single, compound intraperitoneal injection 100 mg/kg single, 4 h before chemotherapeutic agent, cycle 10 days): 60%
- Relative remission rate (%) (Example 232, Fluorouracil (5-Fu) intravenous injection 250 mg/kg single, compound intraperitoneal injection 100 mg/kg single, 6 h before chemotherapeutic agent, cycle 10 days): 60%
- Relative remission rate (%) (Example 233, Fluorouracil (5-Fu) intravenous injection 250 mg/kg single, compound intraperitoneal injection 100 mg/kg single, 8 h before chemotherapeutic agent, cycle 10 days): 50%
- Relative remission rate (%) (Example 234, Fluorouracil (5-Fu) intravenous injection 250 mg/kg single, compound intraperitoneal injection 100 mg/kg single, 10 h before chemotherapeutic agent, cycle 10 days): 50%
- Relative remission rate (%) (Example 235, Fluorouracil (5-Fu) intravenous injection 250 mg/kg single, compound intraperitoneal injection 100 mg/kg single, 12 h before chemotherapeutic agent, cycle 10 days): 70%
- Relative remission rate (%) (Example 236, Fluorouracil (5-Fu) intravenous injection 250 mg/kg single, compound intraperitoneal injection 100 mg/kg single, 14 h before chemotherapeutic agent, cycle 10 days): 40%
- Relative remission rate (%) (Example 237, Fluorouracil (5-Fu) intravenous injection 250 mg/kg single, compound intraperitoneal injection 100 mg/kg single, 16 h before chemotherapeutic agent, cycle 10 days): 40%
- Relative remission rate (%) (Example 238, Fluorouracil (5-Fu) intravenous injection 250 mg/kg single, compound intraperitoneal injection 100 mg/kg single, 18 h before chemotherapeutic agent, cycle 10 days): 50%
- Relative remission rate (%) (Example 239, Fluorouracil (5-Fu) intravenous injection 250 mg/kg single, compound intraperitoneal injection 100 mg/kg single, 20 h before chemotherapeutic agent, cycle 10 days): 50%
- Relative remission rate (%) (Example 240, Fluorouracil (5-Fu) intravenous injection 250 mg/kg single, compound intraperitoneal injection 100 mg/kg single, 24 h before chemotherapeutic agent, cycle 10 days): 50%
- Relative remission rate (%) (Example 287, Irinotecan (CPT-11) intraperitoneal injection 260 mg/kg single, compound intravenous injection 150 mg/kg single, 1 h before chemotherapeutic agent, cycle 8 days): 40%
- Relative remission rate (%) (Example 288, Irinotecan (CPT-11) intraperitoneal injection 260 mg/kg single, compound intravenous injection 150 mg/kg single, 2 h before chemotherapeutic agent, cycle 8 days): 50%
- Relative remission rate (%) (Example 289, Irinotecan (CPT-11) intraperitoneal injection 260 mg/kg single, compound intravenous injection 150 mg/kg single, 3 h before chemotherapeutic agent, cycle 8 days): 50%
- Relative remission rate (%) (Example 290, Irinotecan (CPT-11) intraperitoneal injection 260 mg/kg single, compound intravenous injection 150 mg/kg single, 4 h before chemotherapeutic agent, cycle 8 days): 40%
- Relative remission rate (%) (Example 291, Irinotecan (CPT-11) intraperitoneal injection 260 mg/kg single, compound intravenous injection 150 mg/kg single, 5 h before chemotherapeutic agent, cycle 8 days): 30%
- Relative remission rate (%) (Example 292, Irinotecan (CPT-11) intraperitoneal injection 260 mg/kg single, compound intravenous injection 150 mg/kg single, 6 h before chemotherapeutic agent, cycle 8 days): 40%
- Relative remission rate (%) (Example 293, Irinotecan (CPT-11) intraperitoneal injection 260 mg/kg single, compound intravenous injection 150 mg/kg single, 7 h before chemotherapeutic agent, cycle 8 days): 50%
- Relative remission rate (%) (Example 294, Irinotecan (CPT-11) intraperitoneal injection 260 mg/kg single, compound intravenous injection 150 mg/kg single, 8 h before chemotherapeutic agent, cycle 8 days): 60%
- Relative remission rate (%) (Example 295, Irinotecan (CPT-11) intraperitoneal injection 260 mg/kg single, compound intravenous injection 150 mg/kg single, 9 h before chemotherapeutic agent, cycle 8 days): 70%
- Relative remission rate (%) (Example 296, Irinotecan (CPT-11) intraperitoneal injection 260 mg/kg single, compound intravenous injection 150 mg/kg single, 10 h before chemotherapeutic agent, cycle 8 days): 50%
- Relative remission rate (%) (Example 297, Irinotecan (CPT-11) intraperitoneal injection 260 mg/kg single, compound intravenous injection 150 mg/kg single, 11 h before chemotherapeutic agent, cycle 8 days): 50%
- Relative remission rate (%) (Example 298, Irinotecan (CPT-11) intraperitoneal injection 260 mg/kg single, compound intravenous injection 150 mg/kg single, 12 h before chemotherapeutic agent, cycle 8 days): 40%
- Relative remission rate (%) (Example 299, Irinotecan (CPT-11) intraperitoneal injection 260 mg/kg single, compound intravenous injection 150 mg/kg single, 14 h before chemotherapeutic agent, cycle 8 days): 40%
- Relative remission rate (%) (Example 300, Irinotecan (CPT-11) intraperitoneal injection 260 mg/kg single, compound intravenous injection 150 mg/kg single, 16 h before chemotherapeutic agent, cycle 8 days): 40%
- Relative remission rate (%) (Example 301, Irinotecan (CPT-11) intraperitoneal injection 260 mg/kg single, compound intravenous injection 150 mg/kg single, 18 h before chemotherapeutic agent, cycle 8 days): 50%
- Relative remission rate (%) (Example 302, Irinotecan (CPT-11) intraperitoneal injection 260 mg/kg single, compound intravenous injection 150 mg/kg single, 20 h before chemotherapeutic agent, cycle 8 days): 50%
